The results in this text go back to patent publication US20210386792A1, “A METHOD FOR INCREASING POPULATION OF SPERMATOGONIAL STEM CELLS” (priority 2018, published 2021).

The subject of experiment [1] is EGR-1. Briefly: Western blot of EGR-1 expression in LuECs. The class given is cell-based, mouse. The following applies: LuEC. From the text: FIG. 5. GDNF expression in TECs is regulated by CaN-NFAT signaling. a. Immunouorescence images of testis sections immunostained with the stem cell markers DDX4 and Oct4 and DAPI to stain DNA. Testes were harvested from 1-week-old or 4-week-old Euploid or Ts65Dn mice. Quantication of DDX4+ and Oct4+ cells relative to DAPI per high-powered eld (HPF) is shown on the right, ***P<0.0001. Bar=50 μm. Two-way ANOVA test. b. […] Values are mean±s.e.m. n=4. c. Quantication of GDNF levels by ELISA in conditioned media from murine TECs, LuEC and LiEC after 2 ngml-1 FGF-2 treatment in the presence or absence of CsA. Values are mean±s.e.m., n=4. d. H&E-stained cross-sections from testes of age-matched Euploid, Ts65Dn or Ts65Dn mice 5 weeks after implantation with GFP+ TECs isolated from syngeneic wild-type mice (Ts65Dn+GFP+ TECs). Red dotted line encircles mature sperm (yellow arrow) in the lumen of the seminiferous tubules. Immunouorescence images with GFP and DAPI to stain DNA of testis sections from Ts65Dn+GFP+TECs mice. e. Western blot analysis of EGR-1 protein expression in TECs and LuECs untreated or after FGF-2 treatment, expression of constitutively active NFATc1 (caNFATc1) or an empty vector control. Actin was probed as a loading control. f. Quantication of nuclear translocation of EGR1 and NFATc1 in TECs after treatment with conditioned media (CM), 2 ng ml-1 FGF-2±CsA. Values are mean±s.e.m. g. […]
In general terms: In western blotting, separated proteins are transferred to a membrane and probed.

Experiment [2] concerns EGR-1. Briefly: EGR-1 expression in DS-iPS EC. The class given is cell-based, human.
The test system of experiment [3] is Thy1.2+GFP+ SSCs. The experiment in a line: Colony formation of GFP+ SSCs co-cultured with TECs with added growth factors. Type of experiment: cell-based, mouse. The following applies: Thy1.2+GFP+ cells co-cultured with TECs, factors added to growth media. The protocol: 2D co-cultures were generated by plating 2.7×10^5 cultured GFP^+ SSCs on STO feeder cells 28 or on top of 200 μl of solid matrigel mixture containing TEC (BD bioscience) in serum free medium 28 with exogenous GDNF 10 ng ml^−1 (R&D system), GFR^+ 75 ng ml^−1 (R&D system) and FGF2 1 ng ml^−1 (BD Biosciences). Average GFP^+ SSC colony area was measured and GFP^+ SSC cell number were counted 8 days after plating. Each condition was performed in triplicate.
FIG. 4. a. Quantication of GDNF levels by ELISA in conditioned media from TECs isolated from Fgfr1+/+ or Fgfr1−/− mice. Bar=1 cm. b. Images of testes from busulfan-treated (45 mgkg-1) WT mice 12 weeks post transplantation with PBS(Φ), Fgfr1+/+ TECs or Fgfr1/−/− TECs. Testis weights are indicated on the right (n=4). c. H&E images of testis sections from control (Fgfr1+/+) or endothelialspecic deletion of Fgfr1 (Fgfr1iΔEC/iΔEC) mice at 12 weeks after tamoxifen treatment to induce fgfr1 deletion from ECs. Red stars indicate empty seminiferous tubule. Bar=100 μm. d. Representative bright-eld and GFP images of GFP+ SSCs co-cultured with TECs with the addition of FGF±GDNF at the indicated concentrations after 4 weeks. SSC colony number and size over time are shown on right. e. Immunouorescence images of testis sections from Fgfr1+/+ or Fgfr1iΔEC/iΔEC mice 5 weeks after busulfan treatment at the indicated concentrations. […]

Experiment [4] concerns C-iPS EC. Briefly: GDNF ELISA in conditioned media from control iPS-derived ECs. The settings on record: 2 ng/ml FGF-2. Type of experiment: cell-based, human. The protocol:
Testis, lung, or liver ECs were plated (10,000 cells ml^−1) on 12 well dishes coated with 0.1% gelatin and cultured for 24 hours. Conditioned media was harvested at 24 and 48 hours after FGF-2 (2 ng ml^−1, 20 ng ml^−1 and 50 ng ml^−1) treatment and analyzed by ELISA for GDNF (Promega GDNF Emax immunoassay system, #G7621) following the manufacturer's instruction. Statistics was analyzed using Graph Pad Prism. For quantification of Gdnf mRNA, total RNA was isolated from the cells using Direct-zol RNA MiniPrep (Zymo Research) and reverse transcribed using High Capacity cDNA Reverse Transcription Kit (Appliedbiosystems), according to the manufacturer's instructions. All gene expression levels were normalized to GAPDH mRNA levels.
To generate iPSC lines, either human fibroblasts/stromal cells were transduced with pMXs-based retroviral supernatant with human OCT4, SOX2, KLF4, or MYC as described^30, or mononuclear cells were infected with pHage2-CMV-RTTA-W and pHage-Tet-hSTEMMCA-loxP virus as described^31. All cells were culture on 0.1% gelatin-coated dishes in human endothelial cell medium (Lonza; EGM®-MV Bulletkit) with 50 ng ml^−1 additional VEGF. 500,000 disaggregated single embryonic bodies from human iPSCs were cultured for 48 hours. Non-adherent cells were gently removed and adherent cells were cultured for 1-2 passages. […]
Background: ELISA stands for enzyme-linked immunosorbent assay.

As for fibroblast growth factor-2 [FGF-2], the “EGR-1 expression after FGF-2 treatment” value in experiment [1] was “not”. The “EGR-1 expression after FGF treatment” value in experiment [2] is reported as “minimal EGR-1 expression”. The “SSC colony formation (number and size of colonies)” value in experiment [3] was “sufficient for SSC maintenance and expansion”. For the same substance, the “GDNF production after FGF2 treatment” value in experiment [4] is recorded as “stimulated robust GDNF production”.
